Experimental data from US8586611B2 (priority 2005, dated 2013).

Experiments:
Type in all cases: in vivo
[1] = system: Phytophthora infestans; assay: whole plant or invertebrate; conditions: tomato late blight, spray the day before inoculation
[2] = system: Erysiphe graminis f. sp. tritici; assay: Test E: wheat powdery mildew, spray the day before inoculation (disease rating, 100 = 100% disease control); conditions: spray the day before inoculation
How it was run: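 Wheat seedlings sprayed to run-off with compound suspended in acetone/water 50/50 with 250 ppm Trem 014 (200 ppm equivalent to 500 g/ha); inoculated next day with Erysiphe graminis f. sp. tritici spore dust. Kept 7 days at 20° C, then rated 0–100% disease control versus controls.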

[3] = system: Phytophthora infestans; assay: whole plant or invertebrate; conditions: tomato late blight, spray 17 h after inoculation
[4] = system: Plasmopara viticola; assay: Test B: grape downy mildew, spray 24 h after inoculation (disease rating, 100 = 100% disease control); conditions: spray 24 h after inoculation
How it was run: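 Grape seedlings were inoculated with Plasmopara viticola and held 24 h saturated at 20 °C, then sprayed to run-off with compound suspension (acetone/water with 250 ppm Trem 014; 200 ppm ≈ 500 g/ha). After 5 days at 20 °C and 24 h saturation, disease was rated from 0 to 100% control versus untreated.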

[5] = compounds without asterisk (not 40 or 10 ppm)

SMILES | Test C disease rating (100 = 100% disease control, 0 = no disease control) ([1]; tested at 40 ppm) | Test E disease rating (100 = 100% disease control, 0 = no disease control) ([2]; tested at 40 ppm) | Test D disease rating (100 = 100% disease control, 0 = no disease control) ([3]; tested at 40 ppm) | Test B disease rating (100 = 100% disease control, 0 = no disease control) ([4]; tested at 40 ppm) | Test C disease rating (100 = 100% disease control, 0 = no disease control) [1, 5] | Test E disease rating (100 = 100% disease control, 0 = no disease control) [2, 5] | Test D disease rating (100 = 100% disease control, 0 = no disease control) [3, 5] | Test B disease rating (100 = 100% disease control, 0 = no disease control) [4, 5] | other results
COc1cccc2c1CCCC2N(C)C(=O)c1csc(C2CCN(C(=O)Cn3nc(C(F)(F)F)cc3C)CC2)n1 (stereo not drawn) [compound 196] | 100% | 0% | 99% | 97% |  |  |  |  | 
COc1ccc2c(c1)CCCC2N(C)C(=O)c1csc(C2CCN(C(=O)Cn3nc(C(F)(F)F)cc3C)CC2)n1 (stereo not drawn) [compound 197] | 100% | 0% | 99% | 98% |  |  |  |  | 
COc1ccc2c(c1)C(N(C)C(=O)c1csc(C3CCN(C(=O)Cn4nc(C(F)(F)F)cc4C)CC3)n1)CCC2 (stereo not drawn) [compound 198] | 100% | 0% | 99% | 99% |  |  |  |  | 
Cc1cc(C(F)(F)F)nn1CC(=O)N1CCC(c2nc(C(=O)N(C)C3CCC(C)(C)c4ccccc43)cs2)CC1 (stereo not drawn) [compound 199] | 100% | 0% | 99% | 99% |  |  |  |  | 
Cc1cc(C(F)(F)F)nn1CC(=O)N1CCC(c2nc(C(=O)N(C)C3CCCc4cc(Cl)ccc43)cs2)CC1 (stereo not drawn) [compound 201] | 100% | 0% | 99% | 98% |  |  |  |  | 
Cc1cc(C(F)(F)F)nn1CC(=O)N1CCC(c2cc(C(=O)N(C)[C@@H]3CCCc4ccccc43)no2)CC1 [compound 202] |  |  |  |  | 100% | 0% | 99% | 97% | 
Cc1cc(C(F)(F)F)nn1CC(=O)N1CCC(c2cc(C(=O)N(C)[C@@H]3CCCc4ccccc43)on2)CC1 [compound 203] |  |  |  |  | 100% | 0% | 99% | 94% | 
Cc1cccnc1CC(=O)N1CCC(c2nc(C(=O)N(C)[C@@H]3CCCc4ccccc43)cs2)CC1 [compound 204] |  |  |  |  | 99% | 0% | 98% | 16% | 
CN(C(=O)c1csc(C2CCN(C(=O)Cc3ccccn3)CC2)n1)[C@@H]1CCCc2ccccc21 [compound 205] |  |  |  |  | 75% | 0% | 17% | 0% | 
Cc1cc(C(F)(F)F)nn1CC(=O)N1CCC(c2nc(C(=O)N(C)C3c4ccccc4CC3O)cs2)CC1 (stereo not drawn) [compound 207] |  |  |  |  | 99% | 0% | 99% | 36% | 
CC(=O)OC1CCC(N(C)C(=O)c2csc(C3CCN(C(=O)Cn4nc(C(F)(F)F)cc4C)CC3)n2)c2ccccc21 (stereo not drawn) [compound 212] | 100% | 0% | 99% | 97% |  |  |  |  | 
COC1CCC(N(C)C(=O)c2csc(C3CCN(C(=O)Cn4nc(C(F)(F)F)cc4C)CC3)n2)c2ccccc21 (stereo not drawn) [compound 213] | 100% | 0% | 99% | 99% |  |  |  |  | 
CN(C(=O)c1csc(C2CCN(C(=O)Cc3cccc(Cl)n3)CC2)n1)[C@@H]1CCCc2ccccc21 [compound 214] |  |  |  |  | 99% | 0% | 99% | 98% | 
Cc1cc(C)nc(CC(=O)N2CCC(c3nc(C(=O)N(C)[C@@H]4CCCc5ccccc54)cs3)CC2)c1 [compound 215] |  |  |  |  | 100% | 0% | 99% | 0% | 
Cc1cc(C(F)(F)F)nn1CC(=O)N1CCC(c2noc(C(=O)N(C)[C@H](C)c3ccccc3)n2)CC1 [compound 216] |  |  |  |  | 95% | 0% | 16% | 72% | 
Cc1cc(C(F)(F)F)nn1CC(=O)N1CCC(n2cc(C(=O)N(C)[C@@H]3CCCc4ccccc43)nn2)CC1 [compound 217] |  |  |  |  | 99% | 0% | 40% | 52% | 
CNC(=O)OC1CCC(N(C)C(=O)c2csc(C3CCN(C(=O)Cn4nc(C(F)(F)F)cc4C)CC3)n2)c2ccccc21 (stereo not drawn) [compound 219] |  |  |  |  | 99% | 0% | 99% | 69% | 
Cc1cc(C(F)(F)F)nn1CC(=O)N1CCC(c2nc(C(=O)N(C)C3CCc4cc(Cl)ccc43)cs2)CC1 (stereo not drawn) [compound 221] |  |  |  |  |  |  |  |  | Test C disease rating (100 = 100% disease control, 0 = no disease control) ([1]; tested at 10 ppm): 99%; Test E disease rating (100 = 100% disease control, 0 = no disease control) ([2]; tested at 10 ppm): 0%; Test D disease rating (100 = 100% disease control, 0 = no disease control) ([3]; tested at 10 ppm): 98%; Test B disease rating (100 = 100% disease control, 0 = no disease control) ([4]; tested at 10 ppm): 77%
Cc1cc(C(F)(F)F)nn1CC(=O)N1CCC(c2csc(C(=O)N(C)[C@@H]3CCCc4ccccc43)n2)CC1 [compound 223] | 100% | 0% | 99% | 99% |  |  |  |  | 
Cc1cc(C(F)(F)F)nn1CC(=O)N1CCN(c2nc(C(=O)N(C)[C@@H]3CCCc4ccccc43)ns2)CC1 [compound 224] | 100% | 0% | 99% | 93% |  |  |  |  | 
Cc1cc(C(F)(F)F)nn1CC(=O)N1CCC(c2nc(C(=O)N(C)[C@@H]3CCCc4ccccc43)no2)CC1 [compound 225] |  |  |  |  | 100% | 0% | 99% | 83% | 
